From PubChem BioAssay (NCI) come the findings set out here.

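Step 1: Grow cells in 96-well plates. Step 2: Expose to compound for 48 hours at 5 concentrations. Step 3: Interpolate endpoints linearly; if unreached, use highest concentration. Abbreviation: GI50, concentration required for 50% inhibition of growth. TGI: concentration producing complete growth inhibition.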

Test systems include COLO 205 colon; DU-145 prostate; HOP-62 NSCLC; HT29 colon; K-562 leukemia; MDA-MB-231 breast; OVCAR-3 ovarian; OVCAR-5 ovarian; SNB-75 CNS; SR leukemia.
Test in all cases: NCI tumour cell line growth inhibition, 48 h

In the case of `FC(F)(F)c1cc(NC2=NCCN=C(Nc3cc(C(F)(F)F)cc(C(F)(F)F)c3)SS2)cc(C(F)(F)F)c1`, the GI50 is 3.47 µM in the experiment with COLO 205 colon; 6.24 µM in the experiment with DU-145 prostate; 13.1 µM in the experiment with HOP-62 NSCLC; 3.85 µM in the experiment on HT29 colon; 3.58 µM with K-562 leukemia; 3.59 µM in the experiment with MDA-MB-231 breast. In addition, the GI50 is 2.94 µM in the experiment on OVCAR-3 ovarian, 5.94 µM in the experiment with OVCAR-5 ovarian, 9.35 µM in the experiment on SNB-75 CNS and 3.76 µM in the experiment with SR leukemia. The TGI with COLO 205 colon was determined as 13.2 µM; with DU-145 prostate it was 18.9 µM; in the experiment on HOP-62 NSCLC it was 31.3 µM; with HT29 colon, 14.1 µM; with K-562 leukemia, 17.6 µM; in the experiment on MDA-MB-231 breast, 15 µM. Further, the TGI with OVCAR-3 ovarian was 8.64 µM; in the experiment with OVCAR-5 ovarian, 19.7 µM; with SNB-75 CNS, 45.6 µM; with SR leukemia, 20.4 µM.
For the compound `COC(=O)C12C3C4C1C1C2C3C41C(=O)N(C(C)C)C(C)C` (stereo not drawn), the TGI in the experiment on COLO 205 colon, in the experiment with HOP-62 NSCLC, in the experiment on HT29 colon, in the experiment with K-562 leukemia, in the experiment on OVCAR-3 ovarian and with OVCAR-5 ovarian was more than 100 µM in each case. Besides, the TGI in the experiment with SNB-75 CNS and with SR leukemia was more than 100 µM each time.
For the compound `N#Cc1ccc2c(c1)C(=O)c1c-2n(CCCN=[N+]=[N-])c(=O)c2cc([N+](=O)[O-])ccc12`, the GI50 is more than 50 µM with COLO 205 colon; 7.16 µM in the experiment on DU-145 prostate; 15 µM in the experiment with HOP-62 NSCLC; 32.1 µM with HT29 colon; more than 50 µM in the experiment with MDA-MB-231 breast; more than 50 µM in the experiment on OVCAR-3 ovarian. Besides, the GI50 was more than 50 µM in the experiment on OVCAR-5 ovarian, 17.4 µM with SNB-75 CNS and 0.373 µM in the experiment on SR leukemia. In addition, the TGI in the experiment on COLO 205 colon, in the experiment with DU-145 prostate, in the experiment with HOP-62 NSCLC, in the experiment with HT29 colon, with MDA-MB-231 breast and in the experiment on OVCAR-3 ovarian was more than 50 µM in each case. The TGI in the experiment on OVCAR-5 ovarian is more than 50 µM; with SNB-75 CNS, more than 50 µM; in the experiment on SR leukemia, 4.82 µM.
For the compound `[N-]=[N+]=Nc1c(Br)c(=O)[nH]c(=O)n1COCCO`, the TGI in the experiment on COLO 205 colon, with HOP-62 NSCLC, in the experiment on HT29 colon, with K-562 leukemia, in the experiment with OVCAR-3 ovarian and in the experiment on OVCAR-5 ovarian was more than 100 µM throughout. Further, the TGI in the experiment with SNB-75 CNS and with SR leukemia was more than 100 µM in each case.
As to `CC(=O)Nc1cc2cc(NS(=O)(=O)c3cc(C(F)(F)F)cc(C(F)(F)F)c3)ccc2oc1=O`, the TGI with COLO 205 colon, in the experiment with DU-145 prostate, in the experiment on HOP-62 NSCLC, with HT29 colon, in the experiment with K-562 leukemia and with MDA-MB-231 breast was more than 100 µM in each case. The TGI with OVCAR-3 ovarian, with OVCAR-5 ovarian and in the experiment with SR leukemia was more than 100 µM each time.
In the case of `COC(=O)/C(=N/O)C(C(=O)OC)C(=O)C(=O)Nc1c(Cl)cc(C)cc1S(=O)(=O)O` (stereo not drawn), the TGI in the experiment with COLO 205 colon, in the experiment on HOP-62 NSCLC, with HT29 colon, in the experiment with K-562 leukemia, with OVCAR-3 ovarian and in the experiment with OVCAR-5 ovarian was more than 100 µM in each case. Besides, the TGI with SNB-75 CNS is more than 100 µM; in the experiment on SR leukemia, 42.8 µM.
For `O=C(O)Cc1cc(=O)[nH]c2c1C(=O)CCC2`, the TGI in the experiment with COLO 205 colon, in the experiment with HT29 colon, in the experiment with K-562 leukemia, with OVCAR-3 ovarian, in the experiment with OVCAR-5 ovarian and in the experiment with SR leukemia was more than 100 µM each time.
Consider `Cc1ccc(S(=O)(=O)c2ccsc2N)cc1`, for which the GI50 in the experiment with COLO 205 colon, with DU-145 prostate, in the experiment on HOP-62 NSCLC, in the experiment with HT29 colon, in the experiment on K-562 leukemia and in the experiment with MDA-MB-231 breast was more than 100 µM throughout. The GI50 with OVCAR-3 ovarian is 56.1 µM; in the experiment with OVCAR-5 ovarian, more than 100 µM; in the experiment with SR leukemia, more than 100 µM. Moreover, the TGI with COLO 205 colon, in the experiment on DU-145 prostate, in the experiment on HOP-62 NSCLC, in the experiment with HT29 colon, in the experiment with K-562 leukemia and with MDA-MB-231 breast was more than 100 µM each time. The TGI in the experiment with OVCAR-3 ovarian, with OVCAR-5 ovarian and with SR leukemia was more than 100 µM in each case.
Take `COc1cc2c3c(c1OC)Oc1ccc(cc1)CC1c4c(cc(OC)c(OC)c4Oc4ccc(cc4)CC3N(C)CC2)CCN1C` (stereo not drawn): the TGI in the experiment with COLO 205 colon was 26.4 µM; with HOP-62 NSCLC, 61.4 µM; with HT29 colon, 35.2 µM; with K-562 leukemia, 35.5 µM; with OVCAR-3 ovarian, 44.7 µM; with OVCAR-5 ovarian it was more than 100 µM. Also, the TGI was determined as 49.2 µM with SNB-75 CNS and 7.24 µM in the experiment on SR leukemia.
For the compound `CCOC(=O)NC(=O)c1cn(C2OC(CO)C(O)C2O)c(=O)[nH]c1=O` (stereo not drawn), the TGI in the experiment with HOP-62 NSCLC, with HT29 colon, in the experiment with K-562 leukemia, in the experiment with OVCAR-3 ovarian, in the experiment with OVCAR-5 ovarian and in the experiment with SNB-75 CNS was more than 100 µM throughout. The compound further returned a TGI in the experiment with SR leukemia of more than 100 µM.
`COC(=O)c1nn(C(=N)c2ccc(Cl)cc2)c2c1CCCCC2`: the TGI in the experiment on COLO 205 colon, with HOP-62 NSCLC, in the experiment on HT29 colon, in the experiment with K-562 leukemia, in the experiment on OVCAR-5 ovarian and with SNB-75 CNS was more than 100 µM in each case. For the same compound, in the experiment with SR leukemia, the TGI is more than 100 µM.
`N=C1C(c2nc(-c3ccc(Br)cc3)cs2)=C(O)CN1CC1CCCO1` (stereo not drawn): the GI50 in the experiment with COLO 205 colon, in the experiment on HOP-62 NSCLC, in the experiment on HT29 colon, with K-562 leukemia, in the experiment on MDA-MB-231 breast and with OVCAR-5 ovarian was more than 100 µM each time. Moreover, the GI50 in the experiment on SNB-75 CNS was 7.13 µM; in the experiment on SR leukemia, more than 100 µM. Besides, the TGI in the experiment on COLO 205 colon, with HOP-62 NSCLC, in the experiment with HT29 colon, with K-562 leukemia, with MDA-MB-231 breast and in the experiment on OVCAR-5 ovarian was more than 100 µM in each case. For the same compound, the TGI with SNB-75 CNS and with SR leukemia was more than 100 µM in each case.
